Reference: PubChem BioAssay AID248 (DTP/NCI, 2004)
Several values for one entry are separate records, joined by “and”; a condition that tells them apart may be missing. Equal entries are not always repeated. Inconclusive results and toxic doses are left out. Cut-off read from the data, not from the text of the source: active = T/C of 150% or more; inactive = T/C below 125%.

Test system: L1210 leukemia ip in BDF1 mice, survival T/C
Assay: NCI In Vivo Anticancer Drug Screen. Data for tumor model L1210 Leukemia (intraperitoneal) in B6D2F1 (BDF1) mice
Conditions: endpoint: mean survival time, higher = longer survival
In short: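 In this screen, tumor-bearing mice given compound are compared to those given vehicle, and their survival values are reported as a treated-to-control quotient.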

[1] = dose: 100.0 mg/kg/injection, schedule: Q01DX001 (ip), vehicle: carboxymethylcellulose (CMC)
[2] = dose: 200.0 mg/kg/injection, schedule: Q01DX001 (ip), vehicle: carboxymethylcellulose (CMC)
[3] = dose: 400.0 mg/kg/injection, schedule: Q01DX001 (ip), vehicle: carboxymethylcellulose (CMC)
[4] = dose: 100.0 mg/kg/injection, schedule: Q01DX009 (ip), vehicle: Klucel (hydroxypropylcellulose) (HPC)
[5] = dose: 200.0 mg/kg/injection, schedule: Q01DX009 (ip), vehicle: Klucel (hydroxypropylcellulose) (HPC)
[6] = dose: 400.0 mg/kg/injection, schedule: Q01DX009 (ip), vehicle: Klucel (hydroxypropylcellulose) (HPC)
[7] = dose: 50.0 mg/kg/injection, schedule: Q01DX009 (ip), vehicle: saline
[8] = dose: 100.0 mg/kg/injection, schedule: Q01DX009 (ip), vehicle: saline
[9] = dose: 100.0 mg/kg/injection, schedule: Q04DX002 (ip), vehicle: Klucel (hydroxypropylcellulose) (HPC)
[10] = dose: 200.0 mg/kg/injection, schedule: Q04DX002 (ip), vehicle: Klucel (hydroxypropylcellulose) (HPC)
[11] = dose: 400.0 mg/kg/injection, schedule: Q04DX002 (ip), vehicle: Klucel (hydroxypropylcellulose) (HPC)
[12] = dose: 200.0 mg/kg/injection, schedule: Q01DX009 (ip), vehicle: saline
[13] = dose: 400.0 mg/kg/injection, schedule: Q01DX009 (ip), vehicle: saline

Measured: T/C

N#CCCC(C#N)(CCC#N)c1ccc([N+](=O)[O-])cc1
inactive: dose: 100.0 mg/kg/injection, schedule: Q01DX009 (ip), vehicle: saline with Tween-80 102 % of control | dose: 100.0 mg/kg/injection, schedule: Q04DX003 (ip), vehicle: saline with Tween-80 98 % of control | dose: 200.0 mg/kg/injection, schedule: Q01DX009 (ip), vehicle: saline with Tween-80 107 % of control | dose: 200.0 mg/kg/injection, schedule: Q04DX003 (ip), vehicle: saline with Tween-80 98 % of control | dose: 400.0 mg/kg/injection, schedule: Q01DX009 (ip), vehicle: saline with Tween-80 98 % of control | dose: 400.0 mg/kg/injection, schedule: Q04DX003 (ip), vehicle: saline with Tween-80 98 % of control

CC1(Cl)C(=O)NN=C1c1ccc([N+](=O)[O-])cc1 (stereo not drawn)
inactive: [1] 102 % of control | [2] 102 % of control | [3] 105 % of control

C[Si](C)(C)c1c(F)c(F)cc(F)c1F
inactive: [4] 98 % of control | dose: 100.0 mg/kg/injection, schedule: Q04DX003 (ip), vehicle: Klucel (hydroxypropylcellulose) (HPC) 98 % of control | [5] 112 % of control | dose: 200.0 mg/kg/injection, schedule: Q04DX003 (ip), vehicle: Klucel (hydroxypropylcellulose) (HPC) 95 % of control | [6] 94 % of control | dose: 400.0 mg/kg/injection, schedule: Q04DX003 (ip), vehicle: Klucel (hydroxypropylcellulose) (HPC) 97 % of control

CC(=S)Nc1ccccc1
inactive: dose: 25.0 mg/kg/injection, schedule: Q01DX009 (ip), vehicle: Klucel (hydroxypropylcellulose) (HPC) 101 % of control | dose: 50.0 mg/kg/injection, schedule: Q01DX009 (ip), vehicle: Klucel (hydroxypropylcellulose) (HPC) 104 % of control | [4] 95 % of control

CCCCOC(=O)c1ccc(C)s1
inactive: [1] 95 % of control | [2] 101 % of control | [3] 95 % of control

C[n+]1ccc(/C=C\c2ccc3c(c2)OCO3)cc1
inactive: dose: 75.0 mg/kg/injection, schedule: Q01DX001 (ip), vehicle: saline 100 % of control

NC1CCC(CC2CC3CCC2C3)CC1 (stereo not drawn)
inactive: dose: 12.5 mg/kg/injection, schedule: Q01DX009 (ip), vehicle: saline 98 % of control | dose: 25.0 mg/kg/injection, schedule: Q01DX009 (ip), vehicle: saline 91 % of control | dose: 25.0 mg/kg/injection, schedule: Q04DX003 (ip), vehicle: saline 100 % of control | [7] 100 % of control | dose: 50.0 mg/kg/injection, schedule: Q04DX003 (ip), vehicle: saline 96 % of control | [8] 90 % of control | dose: 100.0 mg/kg/injection, schedule: Q04DX003 (ip), vehicle: saline 96 % of control

CCCCCOc1cc([N+](=O)[O-])c(OCCCCC)cc1N1CCN(C(C)=O)CC1
inactive: dose: 100.0 mg/kg/injection, schedule: Q04DX003 (sc), vehicle: olive oil, sesame oil, peanut oil 100 % of control | dose: 200.0 mg/kg/injection, schedule: Q04DX003 (sc), vehicle: olive oil, sesame oil, peanut oil 96 % of control | dose: 400.0 mg/kg/injection, schedule: Q04DX003 (sc), vehicle: olive oil, sesame oil, peanut oil 105 % of control

COC1OC(COC(c2ccccc2)(c2ccccc2)c2ccccc2)C(OC)C(OC(C)=O)C1OC(C)=O (stereo not drawn)
inactive: dose: 25.0 mg/kg/injection, schedule: Q04DX002 (ip), vehicle: Klucel (hydroxypropylcellulose) (HPC) 95 % of control | dose: 50.0 mg/kg/injection, schedule: Q04DX002 (ip), vehicle: Klucel (hydroxypropylcellulose) (HPC) 95 % of control | [9] 92 % of control | [10] 102 % of control | [11] 90 % of control

N#CCC(=O)N/N=C/c1ccccc1
inactive: dose: 100.0 mg/kg/injection, schedule: Q04DX002 (ip), vehicle: saline with Tween-80 97 % of control | dose: 200.0 mg/kg/injection, schedule: Q04DX002 (ip), vehicle: saline with Tween-80 101 % of control | dose: 400.0 mg/kg/injection, schedule: Q04DX002 (ip), vehicle: saline with Tween-80 101 % of control

Cc1nsc(N(NC(=O)c2ccccc2)C(=O)c2ccccc2)n1
inactive: dose: 75.0 mg/kg/injection, schedule: Q01DX001 (ip), vehicle: carboxymethylcellulose (CMC) 95 % of control

NCCCN1CCCC1=O
inactive: dose: 100.0 mg/kg/injection, schedule: Q01DX001 (ip), vehicle: saline 98 % of control | dose: 200.0 mg/kg/injection, schedule: Q01DX001 (ip), vehicle: saline 101 % of control | dose: 400.0 mg/kg/injection, schedule: Q01DX001 (ip), vehicle: saline 98 % of control

O=C1c2cc3c(cc2CCC1c1ccc2c(c1)OCO2)OCO3 (stereo not drawn)
inactive: dose: 40.0 mg/kg/injection, schedule: Q01DX009 (ip), vehicle: saline with Tween-80 88 % of control | dose: 80.0 mg/kg/injection, schedule: Q01DX009 (ip), vehicle: saline with Tween-80 88 % of control | dose: 120.0 mg/kg/injection, schedule: Q01DX009 (ip), vehicle: saline with Tween-80 94 % of control | dose: 240.0 mg/kg/injection, schedule: Q01DX009 (ip), vehicle: saline with Tween-80 94 % of control | dose: 240.0 mg/kg/injection, schedule: Q01DX009 (ip), vehicle: saline 93 % of control | dose: 360.0 mg/kg/injection, schedule: Q01DX009 (ip), vehicle: saline with Tween-80 96 % of control | dose: 360.0 mg/kg/injection, schedule: Q01DX009 (ip), vehicle: saline 96 % of control | dose: 545.0 mg/kg/injection, schedule: Q01DX009 (ip), vehicle: saline 91 % of control

CN(C)C=C(S(C)(=O)=O)S(C)(=O)=O
inactive: dose: 75.0 mg/kg/injection, schedule: Q04DX003 (ip), vehicle: saline 97 % of control | [8] 101 % of control | dose: 150.0 mg/kg/injection, schedule: Q04DX003 (ip), vehicle: saline 97 % of control | [12] 109 % of control | dose: 300.0 mg/kg/injection, schedule: Q04DX003 (ip), vehicle: saline 101 % of control | [13] 98 % of control

C[C@@H]1C[C@@]2(C)C(=CC1=O)CC[C@@H]1C2=CC[C@@]2(C)[C@H]1CC[C@]2(C)O
inactive: [8] 100 % of control | dose: 100.0 mg/kg/injection, schedule: Q04DX003 (ip), vehicle: alcohol 103 % of control | [12] 100 % of control | dose: 200.0 mg/kg/injection, schedule: Q04DX003 (ip), vehicle: alcohol 103 % of control | [13] 100 % of control | dose: 400.0 mg/kg/injection, schedule: Q04DX003 (ip), vehicle: alcohol 97 % of control

CCCNC(C)CC(=O)OCC (stereo not drawn)
inactive: dose: 100.0 mg/kg/injection, schedule: Q01DX Z (ip), vehicle: methylcellulose (MC) 96 % of control | dose: 200.0 mg/kg/injection, schedule: Q01DX Z (ip), vehicle: methylcellulose (MC) 94 % of control

Clc1ccccc1C1OC1c1ccccc1Cl (stereo not drawn)
inactive: [4] 105 % of control | [9] 98 % of control | [5] 102 % of control | [10] 91 % of control | [6] 94 % of control | [11] 102 % of control

CC(=O)OCC1OC(n2cnc3c(Cl)nc(N)nc32)C(OC(C)=O)C1OC(C)=O (stereo not drawn)
inactive: dose: 100.0 mg/kg/injection, schedule: Q01DX005 (ip), vehicle: saline 103 % of control | dose: 200.0 mg/kg/injection, schedule: Q01DX005 (ip), vehicle: saline 101 % of control

CCN(CC)C(=O)c1ccncc1
inactive: [7] 101 % of control | [8] 106 % of control and 88 % of control | [12] 97 % of control | [13] 111 % of control
